Tests used:
[1] = system: ZEAMX (Corn, Field); assay: Postemergence herbicidal evaluation; type: in vivo, Zea mays; settings: for ZEAMX herbicidal rating: postemergence
Summary of the method: (§1)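 Each compound, dispersed in an acetone/water mix (50/50) carrying 0.5% TWEEN 20, is nozzle-sprayed at 40 psi on approximately two-week-old seedlings at about 0.0156–0.500 kg/ha. Plants are assessed 4–5 weeks afterward on a 0–9 scale relative to control; duplicate tests are averaged.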

[2] = system: AMBEL (Ragweed, Common); assay: Preemergence herbicidal evaluation; type: in vivo, Ambrosia artemisifolia; settings: rated 4-5 weeks after treatment
Summary of the method: (§2)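 Greenhouse preemergence test: seed-soil mix sown on ~1 inch soil; aqueous acetone spray at equivalent of ~0.0156–0.500 kg/ha; greenhouse-held and watered; scored 0–9 visually at 4–5 weeks.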

[3] = system: ECHCG (Barnyardgrass); assay: Preemergence herbicidal evaluation; type: in vivo, Echinochloa crus-galli; settings: rated 4-5 weeks after treatment
Summary of the method: as §2

[4] = system: CASOB (Sicklepod); assay: Preemergence herbicidal evaluation; type: in vivo, Cassia obtusifolia; settings: rated 4-5 weeks after treatment
Summary of the method: as §2

[5] = system: GALAP (Galium); assay: Preemergence herbicidal evaluation; type: in vivo, Galium aparine; settings: rated 4-5 weeks after treatment
Summary of the method: as §2

[6] = system: SAGPY (Arrowhead (Pygmaea)); assay: Preemergence weed control under flooded paddy conditions; type: in vivo, Sagittaria pygmaea; settings: rated 3-4 weeks after treatment
Summary of the method: (§3)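 Values are visual 0-9 scores against a control for a preemergence application into paddy flood water at about 0.0313 to 0.500 kg/ha. Greenhouse duration was three to four weeks.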

[7] = system: CYPSE (Flatsedge); assay: as above; type: in vivo, Cyperus serotinus; settings: rated 3-4 weeks after treatment
Summary of the method: as §3

[8] = system: IPOHE (Morningglory, Ivyleaf); assay: Postemergence herbicidal evaluation; type: in vivo, Ipomoea hederacea; settings: for IPOHE herbicidal rating: postemergence
Summary of the method: as §1

[9] = system: SETVI (Foxtail, Green); assay: Preemergence herbicidal evaluation; type: in vivo, Setaria viridis; settings: rated 4-5 weeks after treatment
Summary of the method: as §2

[10] = system: GLXMAW (Soybean, Williams); assay: Preemergence herbicidal evaluation; type: in vivo, Glycine max, (L.) Merr. cv Williams; settings: rated 4-5 weeks after treatment
Summary of the method: as §2

[11] = system: GLXMAW (Soybean, Williams); assay: Postemergence herbicidal evaluation; type: in vivo, Glycine max, (L.) Merr. cv Williams; settings: for GLXMAW herbicidal rating: postemergence
Summary of the method: as §1

[12] = system: ABUTH (Velvetleaf); assay: Preemergence herbicidal evaluation; type: in vivo, Abutilon theophrasti; settings: rated 4-5 weeks after treatment
Summary of the method: as §2

[13] = system: AMBEL (Ragweed, Common); assay: Postemergence herbicidal evaluation; type: in vivo, Ambrosia artemisifolia; settings: for AMBEL herbicidal rating: postemergence
Summary of the method: as §1

[14] = system: ECHORC (Watergrass (Calif.)); assay: Postemergence weed control under flooded paddy conditions; type: in vivo, Echinochloa oryzoides; settings: postemergence weeds
Summary of the method: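 Containers holding 3–5 cm weeds and rice at 1.5–2.5 leaves are flooded to 1.5–3 cm above soil. Compound in 50/50 v/v aqueous/acetone is then added directly to the water, about 0.0313–0.500 kg/ha. Plants are kept in the greenhouse and rated 0–9 visually at 3–4 weeks.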

`CCOC(=O)CN1C(=O)C(Cc2ccccc2OC(C)C(=O)OC)SC1=Nc1cc(-n2c(=O)cc(C(F)(F)F)n(C)c2=O)c(F)cc1Cl` (stereo not shown) [Compound 50, 2-{{2-Chloro-5-[3,6-dihydro-3-methyl-2,6-dioxo-4-(trifluoromethyl)-1(2H)-pyrimidinyl]-4-fluoro-phenyl}imino}-5-(o-hydroxybenzyl)-4-oxo-3-thiazolidineacetic acid, ethyl ester, ester with methyl lactate] was tested, and the “Postemergence herbicidal rating ZEAMX” value ([1]; Rate 0.0156 kg/ha) was 5.0, the “Postemergence herbicidal rating ZEAMX” value ([1]; Rate 0.0313 kg/ha) was 5.0 and the “Postemergence herbicidal rating ZEAMX” value ([1]; Rate 0.0625 kg/ha) was 5.5. For the same compound, the “Preemergence herbicidal rating AMBEL” value ([2]; rate 0.0625 kg/ha) was 0.0, the “Preemergence herbicidal rating AMBEL” value ([2]; rate 0.1250 kg/ha) was 0.0 and the “Preemergence herbicidal rating AMBEL” value ([2]; rate 0.2500 kg/ha) was 0.0. The “Preemergence herbicidal rating ECHCG” value ([3]; rate 0.0625 kg/ha) was 0.0, the “Preemergence herbicidal rating ECHCG” value ([3]; rate 0.1250 kg/ha) was 0.0 and the “Preemergence herbicidal rating ECHCG” value ([3]; rate 0.2500 kg/ha) was 0.0. The “Preemergence herbicidal rating CASOB” value ([4]; rate 0.0625 kg/ha) was 0.0, the “Preemergence herbicidal rating CASOB” value ([4]; rate 0.1250 kg/ha) was 9.0 and the “Preemergence herbicidal rating CASOB” value ([4]; rate 0.2500 kg/ha) was 9.0. The “Preemergence herbicidal rating GALAP” value ([5]; rate 0.0625 kg/ha) was 0.0, the “Preemergence herbicidal rating GALAP” value ([5]; rate 0.1250 kg/ha) was 0.0 and the “Preemergence herbicidal rating GALAP” value ([5]; rate 0.2500 kg/ha) was 0.0. The “Herbicidal rating SAGPY” value ([6]; 0.0313 kg/ha) was 2.0, the “Herbicidal rating SAGPY” value ([6]; 0.0625 kg/ha) was 2.0 and the “Herbicidal rating SAGPY” value ([6]; 0.1250 kg/ha) was 3.0. The “Herbicidal rating SAGPY” value ([6]; 0.2500 kg/ha) was 3.0, the “Herbicidal rating CYPSE” value ([7]; 0.0313 kg/ha) was 0.0 and the “Herbicidal rating CYPSE” value ([7]; 0.0625 kg/ha) was 0.0. For the same compound, the “Herbicidal rating CYPSE” value ([7]; 0.1250 kg/ha) was 0.0, the “Herbicidal rating CYPSE” value ([7]; 0.2500 kg/ha) was 0.0 and the “Postemergence herbicidal rating IPOHE” value ([8]; Rate 0.0156 kg/ha) was 9.0. For the same compound, the “Postemergence herbicidal rating IPOHE” value ([8]; Rate 0.0313 kg/ha) was 9.0, the “Postemergence herbicidal rating IPOHE” value ([8]; Rate 0.0625 kg/ha) was 9.0 and the “Preemergence herbicidal rating SETVI” value ([9]; rate 0.0625 kg/ha) was 0.0. The “Preemergence herbicidal rating SETVI” value ([9]; rate 0.1250 kg/ha) was 0.0, the “Preemergence herbicidal rating SETVI” value ([9]; rate 0.2500 kg/ha) was 0.0 and the “Preemergence herbicidal rating GLXMAW” value ([10]; rate 0.0625 kg/ha) was 0.0. For the same compound, the “Preemergence herbicidal rating GLXMAW” value ([10]; rate 0.1250 kg/ha) was 0.0, the “Preemergence herbicidal rating GLXMAW” value ([10]; rate 0.2500 kg/ha) was 0.0 and the “Postemergence herbicidal rating GLXMAW” value ([11]; Rate 0.0156 kg/ha) was 5.5. For the same compound, the “Postemergence herbicidal rating GLXMAW” value ([11]; Rate 0.0313 kg/ha) was 5.5, the “Postemergence herbicidal rating GLXMAW” value ([11]; Rate 0.0625 kg/ha) was 5.5 and the “Preemergence herbicidal rating ABUTH” value ([12]; rate 0.0625 kg/ha) was 9.0. The “Preemergence herbicidal rating ABUTH” value ([12]; rate 0.1250 kg/ha) was 9.0, the “Preemergence herbicidal rating ABUTH” value ([12]; rate 0.2500 kg/ha) was 9.0 and the “Postemergence herbicidal rating AMBEL” value ([13]; Rate 0.0156 kg/ha) was 9.0. For the same compound, the “Postemergence herbicidal rating AMBEL” value ([13]; Rate 0.0313 kg/ha) was 9.0, the “Postemergence herbicidal rating AMBEL” value ([13]; Rate 0.0625 kg/ha) was 9.0 and the “Herbicidal rating ECHORC” value ([14]; rate 0.0313 kg/ha, 3-4 weeks after treatment) was 4.0. For the same compound, the “Herbicidal rating ECHORC” value ([14]; rate 0.0625 kg/ha, 3-4 weeks after treatment) was 7.0, the “Herbicidal rating ECHORC” value ([14]; rate 0.1250 kg/ha, 3-4 weeks after treatment) was 7.0 and the “Herbicidal rating ECHORC” value ([14]; rate 0.2500 kg/ha, 3-4 weeks after treatment) was 7.0.
Work on `COC(=O)[C@H](Cc1ccc([N+](=O)[O-])cc1)N1C(=O)CSC1=Nc1cc(-n2c(=O)cc(C(F)(F)F)n(C)c2=O)c(F)cc1Cl` [Compound 78, Methyl 2-{{2-chloro-5-[3,6-dihydro-3-methyl-2,6-dioxo-4-(trifluoromethyl)-1(2H)-pyrimidinyl]-4-fluorophenyl}imino}-4-oxo-α-(p-nitrobenzyl)-3-thiazolidineacetate, L-] yielded a ZEAMX herbicidal rating ([1]; rate 0.0158 kg/ha) of 4.5, a ZEAMX herbicidal rating ([1]; rate 0.0315 kg/ha) of 5.0 and a ZEAMX herbicidal rating ([1]; rate 0.0630 kg/ha) of 5.0. The “Preemergence herbicidal rating AMBEL” value ([2]; rate 0.0156 kg/ha) was 0.0, the “Preemergence herbicidal rating AMBEL” value ([2]; rate 0.0313 kg/ha) was 0.0 and the “Preemergence herbicidal rating AMBEL” value ([2]; rate 0.0625 kg/ha) was 0.0. The “Preemergence herbicidal rating AMBEL” value ([2]; rate 0.1250 kg/ha) was 1.0, the “Preemergence herbicidal rating AMBEL” value ([2]; rate 0.2500 kg/ha) was 1.0 and the “Preemergence herbicidal rating ECHCG” value ([3]; rate 0.0156 kg/ha) was 0.0. The “Preemergence herbicidal rating ECHCG” value ([3]; rate 0.0313 kg/ha) was 0.0, the “Preemergence herbicidal rating ECHCG” value ([3]; rate 0.0625 kg/ha) was 0.0 and the “Preemergence herbicidal rating ECHCG” value ([3]; rate 0.1250 kg/ha) was 0.0. For the same compound, the “Preemergence herbicidal rating ECHCG” value ([3]; rate 0.2500 kg/ha) was 1.0, the “Preemergence herbicidal rating CASOB” value ([4]; rate 0.0313 kg/ha) was 0.0 and the “Preemergence herbicidal rating CASOB” value ([4]; rate 0.0625 kg/ha) was 0.0. For the same compound, the “Preemergence herbicidal rating CASOB” value ([4]; rate 0.1250 kg/ha) was 0.0, the “Preemergence herbicidal rating CASOB” value ([4]; rate 0.2500 kg/ha) was 1.0 and the “Preemergence herbicidal rating GALAP” value ([5]; rate 0.0156 kg/ha) was 0.0. The “Preemergence herbicidal rating GALAP” value ([5]; rate 0.0313 kg/ha) was 0.0, the “Preemergence herbicidal rating GALAP” value ([5]; rate 0.0625 kg/ha) was 0.0 and the “Preemergence herbicidal rating GALAP” value ([5]; rate 0.1250 kg/ha) was 3.0. For the same compound, the “Preemergence herbicidal rating GALAP” value ([5]; rate 0.2500 kg/ha) was 2.0, the “SAGPY herbicidal effect rating” value ([6]; 0.0313 kg/ha) was 0.0 and the “SAGPY herbicidal effect rating” value ([6]; 0.0625 kg/ha) was 0.0. For the same compound, the “SAGPY herbicidal effect rating” value ([6]; 0.1250 kg/ha) was 2.0, the “SAGPY herbicidal effect rating” value ([6]; 0.2500 kg/ha) was 4.0 and the “CYPSE herbicidal effect rating” value ([7]; 0.0313 kg/ha) was 6.0. The “CYPSE herbicidal effect rating” value ([7]; 0.0625 kg/ha) was 6.0, the “CYPSE herbicidal effect rating” value ([7]; 0.1250 kg/ha) was 7.0 and the “CYPSE herbicidal effect rating” value ([7]; 0.2500 kg/ha) was 9.0. It also gave an IPOHE herbicidal rating ([8]; rate 0.0158 kg/ha) of 9.0, an IPOHE herbicidal rating ([8]; rate 0.0315 kg/ha) of 9.0 and an IPOHE herbicidal rating ([8]; rate 0.0630 kg/ha) of 9.0. The “Preemergence herbicidal rating SETVI” value ([9]; rate 0.0156 kg/ha) was 0.0, the “Preemergence herbicidal rating SETVI” value ([9]; rate 0.0313 kg/ha) was 0.0 and the “Preemergence herbicidal rating SETVI” value ([9]; rate 0.0625 kg/ha) was 0.0. For the same compound, the “Preemergence herbicidal rating SETVI” value ([9]; rate 0.1250 kg/ha) was 0.0, the “Preemergence herbicidal rating SETVI” value ([9]; rate 0.2500 kg/ha) was 6.0 and the “Preemergence herbicidal rating GLXMAW” value ([10]; rate 0.0156 kg/ha) was 1.0. For the same compound, the “Preemergence herbicidal rating GLXMAW” value ([10]; rate 0.0313 kg/ha) was 0.0, the “Preemergence herbicidal rating GLXMAW” value ([10]; rate 0.0625 kg/ha) was 0.0 and the “Preemergence herbicidal rating GLXMAW” value ([10]; rate 0.1250 kg/ha) was 0.0. The “Preemergence herbicidal rating GLXMAW” value ([10]; rate 0.2500 kg/ha) was 1.0, the GLXMAW herbicidal rating ([11]; rate 0.0158 kg/ha) was 4.0 and the GLXMAW herbicidal rating ([11]; rate 0.0315 kg/ha) was 4.5. The GLXMAW herbicidal rating ([11]; rate 0.0630 kg/ha) was 5.5, the “Preemergence herbicidal rating ABUTH” value ([12]; rate 0.0156 kg/ha) was 0.0 and the “Preemergence herbicidal rating ABUTH” value ([12]; rate 0.0313 kg/ha) was 0.0. The “Preemergence herbicidal rating ABUTH” value ([12]; rate 0.0625 kg/ha) was 0.0, the “Preemergence herbicidal rating ABUTH” value ([12]; rate 0.1250 kg/ha) was 2.0 and the “Preemergence herbicidal rating ABUTH” value ([12]; rate 0.2500 kg/ha) was 9.0. It also gave an AMBEL herbicidal rating ([13]; rate 0.0158 kg/ha) of 7.0, an AMBEL herbicidal rating ([13]; rate 0.0315 kg/ha) of 7.0 and an AMBEL herbicidal rating ([13]; rate 0.0630 kg/ha) of 9.0. The “Herbicidal rating ECHORC” value ([14]; Rate 0.0313 kg/ha, rated 3 to 4 weeks after treatment) was 7.0, the “Herbicidal rating ECHORC” value ([14]; Rate 0.0625 kg/ha, rated 3 to 4 weeks after treatment) was 7.0 and the “Herbicidal rating ECHORC” value ([14]; Rate 0.1250 kg/ha, rated 3 to 4 weeks after treatment) was 9.0. The “Herbicidal rating ECHORC” value ([14]; Rate 0.2500 kg/ha, rated 3 to 4 weeks after treatment) was 9.0.

From patent publication US20020137929A1, “1 - (3-heterocyclylphenyl) isothiourea, -isourea, -guanidine and -amidine herbicidal agents” (Intellectual Property Department, BASF Aktiengesellschaft, priority 1998, published 2002)
